Measurements reported in ChEMBL document CHEMBL5325451, “Structurally Diverse Triterpene-26-oic Acids as Potential Dual ACL and ACC1 Inhibitors from the Vulnerable Conifer Keteleeria fortunei” (J Nat Prod, 2023).

Assays:
[1] = target: Acetyl-CoA carboxylase 1 (Homo sapiens, UniProt Q13085); experiment: Inhibition of ACC1 (unknown origin) preincubated for 30 mins followed by ATP addition measured for 60 mins by ADP-Glo luminescence assay
[2] = target: T1, ATP-citrate synthase (Homo sapiens, UniProt P53396); experiment: Inhibition of ACL (unknown origin) incubated for 30 mins in presence of ATP by ADP-Glo kinase assay
T1 sequence (P53396 whole entry): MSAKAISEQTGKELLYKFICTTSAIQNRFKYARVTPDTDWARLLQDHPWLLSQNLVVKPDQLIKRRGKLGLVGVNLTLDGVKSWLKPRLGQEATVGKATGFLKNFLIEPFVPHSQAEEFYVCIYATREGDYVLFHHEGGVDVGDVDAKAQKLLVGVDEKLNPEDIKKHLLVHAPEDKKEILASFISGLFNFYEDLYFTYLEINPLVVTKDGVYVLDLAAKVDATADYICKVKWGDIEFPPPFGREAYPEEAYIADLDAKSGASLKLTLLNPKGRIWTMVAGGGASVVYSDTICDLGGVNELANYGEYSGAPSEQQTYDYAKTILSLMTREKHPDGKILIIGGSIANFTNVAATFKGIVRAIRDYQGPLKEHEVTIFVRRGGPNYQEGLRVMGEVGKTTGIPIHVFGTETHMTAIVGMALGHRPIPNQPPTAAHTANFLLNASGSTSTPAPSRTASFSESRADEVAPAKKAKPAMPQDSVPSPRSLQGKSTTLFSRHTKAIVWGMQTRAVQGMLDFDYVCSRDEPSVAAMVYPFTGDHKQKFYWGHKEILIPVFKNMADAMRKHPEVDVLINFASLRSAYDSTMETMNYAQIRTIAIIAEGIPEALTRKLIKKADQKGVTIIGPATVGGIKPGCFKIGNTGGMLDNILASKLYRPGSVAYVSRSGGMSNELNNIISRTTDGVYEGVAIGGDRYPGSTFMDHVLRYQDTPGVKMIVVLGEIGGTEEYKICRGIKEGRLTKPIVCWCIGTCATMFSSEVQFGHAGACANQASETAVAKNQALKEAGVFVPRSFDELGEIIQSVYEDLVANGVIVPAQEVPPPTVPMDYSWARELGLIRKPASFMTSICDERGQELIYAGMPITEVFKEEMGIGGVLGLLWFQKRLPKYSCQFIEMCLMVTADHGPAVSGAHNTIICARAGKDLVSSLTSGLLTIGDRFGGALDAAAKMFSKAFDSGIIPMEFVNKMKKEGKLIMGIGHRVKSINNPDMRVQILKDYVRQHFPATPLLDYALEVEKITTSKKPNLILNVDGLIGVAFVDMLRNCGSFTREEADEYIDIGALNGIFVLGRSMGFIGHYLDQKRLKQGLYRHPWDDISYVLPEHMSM

[3] = target: T1, ATP-citrate synthase; experiment: Inhibition of ACL (unknown origin)

Row | Structure (SMILES) | IC50 [1] [µM] | IC50 [2] [µM] | IC50 [3] [µM]
1 | C[C@H](Cc1cc(C(=O)O)co1)[C@]1(C)CC[C@]2(C)C1=CC[C@@]13C[C@@]14CC[C@@H](O)C(C)(C)[C@@H]4CC[C@H]32 | 7.5 | 6.6 | –
2 | CC(=O)O[C@@H]1CC[C@]2(C)[C@@H]3CC[C@]4(C)C(=CC[C@@]4(C)[C@H](C)Cc4cc(C(=O)O)co4)C3=CC[C@H]2C1(C)C | 10.2 | 5.7 | –
3 | COc1ccc(-c2ccccc2)cc1NS(=O)(=O)c1cc(Cl)cc(Cl)c1O | – | – | 0.5
4 | C/C(=C\CC[C@@H](C)[C@H]1CC[C@@]2(C)[C@@H]3CC[C@H]4C(C)(C)[C@H](O)CC[C@@]45C[C@@]35CC[C@]12C)C(=O)O [ISOMANGIFEROLIC ACID] | 10.5 | 7.6 | –

Next, values leading:

Row | IC50 [1] [µM] | IC50 [2] [µM] | IC50 [3] [µM] | Structure (SMILES)
5 | 8.9 | 8.8 | – | C[C@H](Cc1cc(C(=O)O)co1)[C@H]1CC[C@@]2(C)C3=CC[C@H]4C(C)(C)[C@H](O)CC[C@]4(C)[C@@H]3CC[C@]12C
6 | 8.4 | 11.4 | – | C[C@H](CC/C=C(\CO)C(=O)O)[C@H]1CC[C@@]2(C)[C@@H]3CC[C@H]4C(C)(C)[C@H](O)CC[C@@]45C[C@@]35CC[C@]12C
